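Compound exposure: 48 hours, 5 concentrations, 96-well plates. TGI is the concentration that stops growth completely.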
Assays:
Test in all cases: growth of human tumour cells (NCI), 48 h
786-0 renal = system: 786-0 renal
A549 NSCLC = system: A549 NSCLC
ACHN renal = system: ACHN renal
BT-549 breast = system: BT-549 breast
CAKI-1 renal = system: CAKI-1 renal
CCRF-CEM leukemia = system: CCRF-CEM leukemia
COLO 205 colon = system: COLO 205 colon
DU-145 prostate = system: DU-145 prostate
EKVX NSCLC = system: EKVX NSCLC
HCC-2998 colon = system: HCC-2998 colon
HCT-116 colon = system: HCT-116 colon
HCT-15 colon = system: HCT-15 colon
HL-60(TB) leukemia = system: HL-60(TB) leukemia
HOP-62 NSCLC = system: HOP-62 NSCLC
HS 578T breast = system: HS 578T breast
HT29 colon = system: HT29 colon
IGROV1 ovarian = system: IGROV1 ovarian
K-562 leukemia = system: K-562 leukemia
KM12 colon = system: KM12 colon
LOX IMVI melanoma = system: LOX IMVI melanoma
M14 melanoma = system: M14 melanoma
MALME-3M melanoma = system: MALME-3M melanoma
MCF7 breast = system: MCF7 breast
MDA-MB-231 breast = system: MDA-MB-231 breast
MDA-N = system: MDA-N
MOLT-4 leukemia = system: MOLT-4 leukemia
NCI-H226 lung = system: NCI-H226 lung
NCI-H23 lung = system: NCI-H23 lung
NCI-H460 lung = system: NCI-H460 lung
NCI-H522 lung = system: NCI-H522 lung
NCI/ADR-RES ovarian = system: NCI/ADR-RES ovarian
OVCAR-4 ovarian = system: OVCAR-4 ovarian
OVCAR-5 ovarian = system: OVCAR-5 ovarian
OVCAR-8 ovarian = system: OVCAR-8 ovarian
PC-3 prostate = system: PC-3 prostate
RPMI-8226 leukemia = system: RPMI-8226 leukemia
RXF 393 renal = system: RXF 393 renal
SF-268 CNS = system: SF-268 CNS
SF-295 CNS = system: SF-295 CNS
SF-539 CNS = system: SF-539 CNS
SK-MEL-2 melanoma = system: SK-MEL-2 melanoma
SK-MEL-28 melanoma = system: SK-MEL-28 melanoma
SK-MEL-5 melanoma = system: SK-MEL-5 melanoma
SK-OV-3 ovarian = system: SK-OV-3 ovarian
SN12C renal = system: SN12C renal
SNB-19 CNS = system: SNB-19 CNS
SNB-75 CNS = system: SNB-75 CNS
SR leukemia = system: SR leukemia
SW-620 colon = system: SW-620 colon
T-47D breast = system: T-47D breast
TK-10 renal = system: TK-10 renal
U251 CNS = system: U251 CNS
UACC-257 melanoma = system: UACC-257 melanoma
UACC-62 melanoma = system: UACC-62 melanoma
UO-31 renal = system: UO-31 renal

Measured: TGI

CC1(C)OC(C(C)(C)O)C(C(C)(C)O)O1 (stereo not given)
> 100 µM: all assays above

— PubChem BioAssay (NCI)
